Test results from patent US9840478B2 (MERCK SHARP & DOHME CORP., priority 2013, dated 2017).

Tested on: HIV-1 (H9IIIB strain)
Assay: Cell-based HIV infection assay using a reporter (Cell-Based), MT4-GFP cells
Conditions: Human immunodeficiency virus 1, MT4-GFP cells infected with HIV-1 H9IIIB; 50% normal human serum; mean of at least two independent experiments; read-out: Cell-based IP
Method: Cell-Based HIV Infection Assay Using a Reporter (“Cell-Based”):
MT4-GFP cells contain a stably integrated HIV long terminal repeat promoter directing the transcription of green fluorescent protein (GFP). When HIV infects the cell, GFP is produced and the cell becomes green. MT4-GFP cells (250,000 cells/ml) were bulk-infected with HIV-1 (H9IIIB strain) at low multiplicity of infection (MOI) in RPMI media, supplemented with 10% FBS for 24 hours. Cells were then washed once in RPMI plus 10% FBS and resuspended in RPMI plus 50% normal human serum (NHS). Test compounds were serial-diluted in DMSO using an ECHO liquid dispenser. A control well included a combination of three HIV drugs (an inhibitor of HIV protease, integrase strand transfer and a non-nucleoside reverse transcriptase inhibitor; triple drug). The infected MT4-GFP cells were added to a 384-well poly-D-lysine coated black plate with clear bottom in which the diluted test compounds were placed. The cells were seeded in the plate at 8,000 cells per well and the final DMSO concentration was 0.4%. Infected cells were quantified at both 24 and 48 hours post incubation using an Acumen eX3 plate reader. Viral reproductive ratio (R0) was determined using the number of infected cells at 48 hours divided by the number of infected cells at 24 hours. Percent viral growth inhibition was calculated by [1−(R−Rtripledrug)/(RDMSO−Rtripledrug)]*100. Compound potency IP or IC50 was determined with use of a 4-parameter dose response curve analysis.

| Structure (SMILES) | IC50 |
| --- | --- |
| COC(=O)N[C@H](C(=O)Nc1cccc(F)c1CC[C@H]1CNC[C@@H](C)N1S(=O)(=O)C1CC1)[C@@H](c1cccc(Cl)c1)C(C)C [Example 217, (βR)-3-chloro-N-(2-{2-[(2S,6R)-1-(cyclopropylsulfonyl)-6-methylpiperazin-2-yl]ethyl}-3-fluorophenyl)-Nα-(methoxycarbonyl)-β-(1-methylethyl)-L-phenylalaninamide] | 1800 nM |
| CCN(CC)S(=O)(=O)N1CCNC[C@@H]1CCc1c(F)cncc1NC(=O)C[C@@H](c1ccc(F)cc1)c1cc(F)cc(F)c1 [Example 340, (3S)-N-(4-{2-[(2S)-1-(diethylsulfamoyl)pipera-zin-2-yl]ethyl}-5-fluoropyridin-3-yl)-3-(3,5-difluorophenyl)-3-(4-fluorophenyl)propanamide] | 210 nM |
| C[C@H]1CNC[C@H](CCc2c(F)cccc2NC(=O)[C@@H](N)[C@@H](c2ccc(F)cc2)c2cc(F)cc(F)c2)N1S(=O)(=O)c1cccc(F)c1 [Example 106, (βS)-β-(3,5-difluorophenyl)-4-fluoro-N-[3-fluoro-2-(2-{(2S,6S)-1-[(3-fluorophenyl)sulfonyl]-6-methylpiperazin-2-yl}ethyl)phenyl]-L-phenylalaninamide] | 30 nM |
| O=C(C[C@@H](c1ccc(F)cc1)c1cc(F)cc(F)c1)Nc1cncc(F)c1CC[C@H]1CNCCN1C(=O)COc1ccccc1 [Example 343, (3S)-3-(3,5-difluorophenyl)-N-(5-fluoro-4-{2-[(2S)-1-(phenoxyacetyl)piperazin-2-yl]ethyl}pyridin-3-yl)-3-(4-fluorophenyl)propanamide] | 125 nM |
| CC(C)[C@H](c1ccc(Cl)cc1)[C@H](N)C(=O)Nc1cccc(F)c1CC[C@H]1CNC[C@H](C)N1S(=O)(=O)c1ccccc1Cl [Example 271, (βR)-4-chloro-N-[2-(2-{(2S,6S)-1-[(2-chlorophenyl)sulfonyl]-6-methylpiperazin-2-yl}ethyl)-3-fluorophenyl]-β-(1-methylethyl)-L-phenylalaninamide] | 1200 nM |
| CC(=O)N[C@H](C(=O)Nc1cncc(F)c1CC[C@H]1CNCCN1S(=O)(=O)N1CCCC1)[C@@H](c1ccc(F)cc1)c1cc(F)cc(F)c1 [Example 85, (βS)-Nα-acetyl-3,5-difluoro-β-(4-fluorophenyl)-N-(5-fluoro-4-{2-[(2S)-1-(pyrrolidin-1-ylsulfonyl)piperazin-2-yl]ethyl}pyridin-3-yl)-L-phenylalaninamide] | 21 nM |
| C[C@H]1CNC[C@H](CCc2c(F)cccc2NC(=O)[C@@H](N)[C@@H](Cc2ccc(F)cc2)c2ccc(Cl)cc2)N1S(=O)(=O)c1ccccc1 [Example 193, (βS)-4-chloro-β-(4-fluorobenzyl)-N-(3-fluoro-2-{2-[(2S,6S)-6-methyl-1-(phenylsulfonyl)piperazin-2-yl]ethyl}phenyl)-L-phenylalaninamide] | 56 nM |
| COC(=O)N[C@H](C(=O)Nc1cccc(F)c1CC[C@H]1CNC[C@H](C)N1S(=O)(=O)c1cccc(F)c1)[C@@H](c1ccc(F)cc1)c1cc(F)cc(F)c1 [Example 107, (βS)-β-(3,5-difluorophenyl)-4-fluoro-N-[3-fluoro-2-(2-{(2S,6S)-1-[(3-fluorophenyl)sulfonyl]-6-methylpiperazin-2-yl}ethyl)phenyl]-Nα-(methoxycarbonyl)-L-phenylalaninamide] | 150 nM |
| N[C@H](C(=O)Nc1cccc(F)c1CC[C@H]1CNCC2(CC2)N1S(=O)(=O)c1ccccc1)C(c1ccc(F)cc1)c1ccc(F)cc1 [Example 366, (S)-2-amino-N-(3-fluoro-2-(2-((S)-4-(phenylsulfonyl)-4,7-diazaspiro[2.5]octan-5-yl)ethyl)phenyl)-3,3-bis(4-fluorophenyl)propanamide] | 13 nM |
| CC(C)[C@H](c1ccc(Cl)cc1)[C@H](N)C(=O)Nc1cncc(F)c1CC[C@H]1CNC[C@@H](C)N1S(=O)(=O)c1ccccc1 [Example 254, (βR)-4-chloro-N-(5-fluoro-4-{2-[(2S,6R)-6-methyl-1-(phenylsulfonyl)piperazin-2-yl]ethyl}pyridin-3-yl)-β-(1-methylethyl)-L-phenylalaninamide] | 16 nM |
| COC(=O)N[C@H](C(=O)Nc1cncc(F)c1CC[C@H]1CNC[C@H](C)N1S(=O)(=O)c1ccc(OC)cc1)[C@@H](c1ccc(F)cc1)c1cc(F)cc(F)c1 [Example 246, (βS)-β-(3,5-difluorophenyl)-4-fluoro-N-[5-fluoro-4-(2-{(2S,6S)-1-[(4-methoxyphenyl)sulfonyl]-6-methylpiperazin-2-yl}ethyl)pyridin-3-yl]-Nα-(methoxycarbonyl)-L-phenylalaninamide] | 5.9 nM |
| COC(=O)N[C@H](C(=O)Nc1cncc(F)c1CC[C@H]1CNC[C@H](C)N1S(=O)(=O)C1CC1)[C@@H](c1ccc(F)cc1)c1cc(F)cc(F)c1 [Example 210, (βS)-N-(4-{2-[(2S,6S)-1-(cyclopropylsulfonyl)-6-methylpiperazin-2-yl]ethyl}-5-fluoropyridin-3-yl)-β-(3,5-difluorophenyl)-4-fluoro-Nα-(methoxycarbonyl)-L-phenylalaninamide] | 13 nM |
| N[C@@H](Cc1ccc(F)cc1)C(=O)Nc1cncc(F)c1CC[C@H]1CNCCN1S(=O)(=O)C1CC1 [Example 47, N-(4-{2-[(2S)-1-(cyclopropylsulfonyl)piperazin-2-yl]ethyl}-5-fluoropyridin-3-yl)-4-fluoro-L-phenylalaninamide] | 1200 nM |
| O=C(C[C@@H](c1ccc(F)cc1)c1cc(F)cc(F)c1)Nc1cncc(F)c1CC[C@H]1CNCCN1S(=O)(=O)c1cccnc1 [Example 305, (3S)-3-(3,5-difluorophenyl)-3-(4-fluorophenyl)-N-(5-fluoro-4-{2-[(2S)-1-(pyridin-3-ylsulfonyl)piperazin-2-yl]ethyl}pyridin-3-yl)propanamide] | 8.2 nM |
| COC(=O)N[C@H](C(=O)N[C@H]1CCCC[C@@H]1CC[C@H]1CNCCN1S(=O)(=O)c1ccccc1)C(c1ccc(F)cc1)c1ccc(F)cc1 [Example 354, methyl ((S)-1,1-bis(4-fluorophenyl)-3-oxo-3-(((1S,2R)-2-(2-((S)-1-(phenylsulfonyl)piperazin-2-yl)ethyl)cyclohexyl)amino)propan-2-yl)carbamate] | 22 nM |
| CCCS(=O)(=O)N1CCNC[C@@H]1CCc1c(F)cncc1NC(=O)C[C@@H](c1ccc(F)cc1)c1cc(F)cc(F)c1 [Example 317, (3S)-3-(3,5-difluorophenyl)-3-(4-fluorophenyl)-N-(5-fluoro-4-{2-[(2S)-1-(propylsulfonyl)piperazin-2-yl]ethyl}pyridin-3-yl)propanamide] | 24 nM |
| N[C@H](C(=O)Nc1cccc(F)c1CC[C@H]1CNCCN1S(=O)(=O)c1ccccc1)[C@@H](c1ccc(Cl)cc1)C1CCS(=O)(=O)CC1 [Example 41, (βR)-4-chloro-β-(1,1-dioxidotetrahydro-2H-thiopyran-4-yl)-N-(3-fluoro-2-{2-[(2S)-1-(phenylsulfonyl)piperazin-2-yl]ethyl}phenyl)-L-phenylalaninamide] | 34 nM |
| C[C@@H]1CNC[C@H](CCc2c(F)cccc2NC(=O)[C@@H](N)[C@@H](c2ccc(F)cc2)C2CCOCC2)N1S(=O)(=O)c1ccccc1 [Example 104, (βR)-4-fluoro-N-(3-fluoro-2-{2-[(2S,6R)-6-methyl-1-(phenylsulfonyl)piperazin-2-yl]ethyl}phenyl)-β-(tetrahydro-2H-pyran-4-yl)-L-phenylalaninamide] | 37 nM |
| COC(=O)N[C@H](C(=O)Nc1cccc(F)c1CC[C@H]1CNC[C@H](C)N1S(=O)(=O)C1CC1)[C@@H](c1ccc(F)cc1)C1CCOCC1 [Example 115, (βR)-N-(2-{2-[(2S,6S)-1-(cyclopropylsulfonyl)-6-methylpiperazin-2-yl]ethyl}-3-fluorophenyl)-4-fluoro-Nα-(methoxycarbonyl)-β-(tetrahydro-2H-pyran-4-yl)-L-phenylalaninamide] | 45 nM |
| COC(=O)N[C@H](C(=O)Nc1cccc(F)c1CC[C@H]1CNC[C@@H](C)N1S(C)(=O)=O)[C@@H](c1ccc(Cl)cc1)C1CCOCC1 [Example 183, (βR)-4-chloro-N-(3-fluoro-2-{2-[(2S,6R)-6-methyl-1-(methylsulfonyl)piperazin-2-yl]ethyl}phenyl)-Nα-(methoxycarbonyl)-β-(tetrahydro-2H-pyran-4-yl)-L-phenylalaninamide] | 67 nM |
| COC(=O)N[C@H](C(=O)Nc1cccc(F)c1CC[C@H]1CNC[C@@H](C)N1S(=O)(=O)c1ccccc1)[C@@H](c1ccc(Cl)cc1)c1ccc(OC)nc1 [Example 120, (βS)-4-chloro-N-(3-fluoro-2-{2-[(2S,6R)-6-methyl-1-(phenylsulfonyl)piperazin-2-yl]ethyl}phenyl)-Nα-(methoxycarbonyl)-β-(6-methoxypyridin-3-yl)-L-phenylalaninamide] | 19 nM |
| COC(=O)N[C@H](C(=O)Nc1cccc(F)c1CC[C@H]1CNC[C@H](C)N1S(=O)(=O)c1ccccc1)[C@@H](c1ccc(F)c(F)c1)C1CCOCC1 [Example 295, (βR)-3,4-difluoro-N-(3-fluoro-2-{2-[(2S,6S)-6-methyl-1-(phenylsulfonyl)piperazin-2-yl]ethyl}phenyl)-Nα-(methoxycarbonyl)-β-(tetrahydro-2H-pyran-4-yl)-L-phenylalaninamide] | 4.2 nM |
| O=C(Nc1cccc(F)c1CC[C@H]1CNCCN1S(=O)(=O)c1ccccc1)[C@@H](O)C(c1ccccc1)c1ccccc1 (single isomer, unassigned) [Example 364] | 34 nM |
